# According to ChEMBL document CHEMBL1201862, “PubChem BioAssay data set” (2004):
#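 These data come from cells grown in 96-well plates and exposed to compound for 48 hours at five concentrations. Here, GI50 denotes the concentration required for 50% inhibition of growth.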 The source made the active and inactive calls. Rule as the data show it: active = GI50 up to about 1.1 µM and inactive = higher.
# How the values were obtained:
# Experiment in all cases: DTP human tumour cell line panel, 48 h
# [1] = tested on: MCF7
# [2] = tested on: HOP-92
# [3] = tested on: SF-268
# [4] = tested on: Hs-578T
# [5] = tested on: SK-MEL-2
# [6] = tested on: NCI-H226
# [7] = tested on: T47D
# [8] = tested on: SF-295
# [9] = tested on: SK-MEL-28
# [10] = tested on: K562
# [11] = tested on: CCRF-CEM
# [12] = tested on: IGROV-1
# [13] = tested on: NCI-H460
# [14] = tested on: U-251
# [15] = tested on: COLO 205
# [16] = tested on: EKVX
# [17] = tested on: HCT-15
# [18] = tested on: OVCAR-8
# [19] = tested on: TK-10
# [20] = tested on: NCI/ADR-RES
# [21] = tested on: DU-145
# [22] = tested on: MDA-N
# [23] = tested on: Malme-3M
# [24] = tested on: SNB-19
# [25] = tested on: CAKI-1
# [26] = tested on: RPMI-8226
# [27] = tested on: KM12
# [28] = tested on: A498
# [29] = tested on: PC-3
# [30] = tested on: 786-0
# [31] = tested on: NCI-H522
# [32] = tested on: ACHN
# [33] = tested on: HT-29
# [34] = tested on: BT-549
# [35] = tested on: M14
# [36] = tested on: UACC-257
# [37] = tested on: UACC-62
# [38] = tested on: SF-539
# [39] = tested on: OVCAR-3
# [40] = tested on: OVCAR-4
# [41] = tested on: HCT-116
# [42] = tested on: HCC 2998
# [43] = tested on: MDA-MB-231
# [44] = tested on: SK-OV-3
# [45] = tested on: SR
# [46] = tested on: HL-60
# [47] = tested on: SW-620
# [48] = tested on: OVCAR-5
# [49] = tested on: SN12C
# [50] = tested on: A549
# [51] = tested on: UO-31
# [52] = tested on: MDA-MB-435
# [53] = tested on: NCI-H23
# [54] = tested on: SK-MEL-5
# [55] = tested on: LOX IMVI
# [56] = tested on: MOLT-4
# [57] = tested on: HOP-62
# [58] = tested on: SNB-75
compound,measurement,setting,value
O=c1cnn(C2OC(CO)C(O)C(F)C2O)c(=O)[nH]1 (stereo unspecified),GI50,[1],> 100 µM (inactive)
same,GI50,[2],> 100 µM (inactive)
same,GI50,[3],> 100 µM (inactive)
same,GI50,[4],> 100 µM (inactive)
same,GI50,[5],> 100 µM (inactive)
same,GI50,[6],> 100 µM (inactive)
same,GI50,[7],> 100 µM (inactive)
same,GI50,[8],> 100 µM (inactive)
same,GI50,[9],> 100 µM (inactive)
same,GI50,[10],> 100 µM (inactive)
same,GI50,[11],> 100 µM (inactive)
same,GI50,[12],> 100 µM (inactive)
same,GI50,[13],> 100 µM (inactive)
same,GI50,[14],> 100 µM (inactive)
same,GI50,[15],> 100 µM (inactive)
same,GI50,[16],> 100 µM (inactive)
same,GI50,[17],> 100 µM
same,GI50,[18],> 100 µM (inactive)
same,GI50,[19],> 100 µM (inactive)
same,GI50,[20],> 100 µM (inactive)
same,GI50,[21],> 100 µM (inactive)
same,GI50,[22],> 100 µM (inactive)
same,GI50,[23],> 100 µM (inactive)
same,GI50,[24],> 100 µM (inactive)
same,GI50,[25],> 100 µM (inactive)
same,GI50,[26],> 100 µM (inactive)
same,GI50,[27],> 100 µM (inactive)
same,GI50,[28],40.8 µM (inactive)
same,GI50,[29],> 100 µM (inactive)
same,GI50,[30],> 100 µM (inactive)
same,GI50,[31],> 100 µM (inactive)
same,GI50,[32],> 100 µM (inactive)
same,GI50,[33],> 100 µM (inactive)
same,GI50,[34],> 100 µM (inactive)
same,GI50,[35],> 100 µM (inactive)
same,GI50,[36],> 100 µM (inactive)
same,GI50,[37],> 100 µM (inactive)
same,GI50,[38],> 100 µM (inactive)
same,GI50,[39],> 100 µM (inactive)
same,GI50,[40],> 100 µM (inactive)
same,GI50,[41],> 100 µM (inactive)
same,GI50,[42],> 100 µM (inactive)
same,GI50,[43],> 100 µM (inactive)
same,GI50,[44],> 100 µM (inactive)
same,GI50,[45],8.55 µM (inactive)
same,GI50,[46],> 100 µM (inactive)
same,GI50,[47],> 100 µM (inactive)
same,GI50,[48],> 100 µM (inactive)
same,GI50,[49],> 100 µM (inactive)
same,GI50,[50],> 100 µM (inactive)
same,GI50,[51],> 100 µM (inactive)
same,GI50,[52],> 100 µM (inactive)
same,GI50,[53],> 100 µM (inactive)
same,GI50,[54],> 100 µM (inactive)
same,GI50,[55],> 100 µM (inactive)
C=COC(=O)N1C2CCCC(Cl)(C(C)=O)C1CC2 (stereo unspecified),GI50,[1],> 100 µM (inactive)
same,GI50,[2],> 100 µM (inactive)
same,GI50,[3],66.1 µM (inactive)
same,GI50,[4],> 100 µM (inactive)
same,GI50,[5],> 100 µM (inactive)
same,GI50,[6],> 100 µM (inactive)
same,GI50,[7],> 100 µM (inactive)
same,GI50,[8],> 100 µM (inactive)
same,GI50,[56],> 100 µM (inactive)
same,GI50,[9],> 100 µM (inactive)
same,GI50,[10],> 100 µM (inactive)
same,GI50,[11],13.4 µM (inactive)
same,GI50,[12],> 100 µM (inactive)
same,GI50,[13],> 100 µM (inactive)
same,GI50,[14],> 100 µM (inactive)
same,GI50,[15],> 100 µM (inactive)
same,GI50,[16],> 100 µM (inactive)
same,GI50,[17],> 100 µM
same,GI50,[18],> 100 µM (inactive)
same,GI50,[19],> 100 µM (inactive)
same,GI50,[20],> 100 µM (inactive)
same,GI50,[21],> 100 µM (inactive)
same,GI50,[22],79.1 µM (inactive)
same,GI50,[23],87.5 µM (inactive)
same,GI50,[24],> 100 µM (inactive)
same,GI50,[25],> 100 µM (inactive)
same,GI50,[26],> 100 µM (inactive)
same,GI50,[27],> 100 µM (inactive)
same,GI50,[28],> 100 µM (inactive)
same,GI50,[29],> 100 µM (inactive)
same,GI50,[30],> 100 µM (inactive)
same,GI50,[31],> 100 µM (inactive)
same,GI50,[32],> 100 µM (inactive)
same,GI50,[33],> 100 µM (inactive)
same,GI50,[34],> 100 µM (inactive)
same,GI50,[57],> 100 µM (inactive)
same,GI50,[35],> 100 µM (inactive)
same,GI50,[36],> 100 µM (inactive)
same,GI50,[37],> 100 µM (inactive)
same,GI50,[39],> 100 µM (inactive)
same,GI50,[40],> 100 µM (inactive)
same,GI50,[41],> 100 µM (inactive)
same,GI50,[42],> 100 µM (inactive)
same,GI50,[43],> 100 µM (inactive)
same,GI50,[44],> 100 µM (inactive)
same,GI50,[45],> 100 µM (inactive)
same,GI50,[47],> 100 µM (inactive)
same,GI50,[48],> 100 µM (inactive)
same,GI50,[49],> 100 µM (inactive)
same,GI50,[50],> 100 µM (inactive)
same,GI50,[51],> 100 µM (inactive)
same,GI50,[52],58.9 µM (inactive)
same,GI50,[58],28.2 µM (inactive)
same,GI50,[53],> 100 µM (inactive)
same,GI50,[54],> 100 µM (inactive)
same,GI50,[55],> 100 µM (inactive)
